According to patent US20220050094A1, “Application of the apparent volume of distribution in extraction technologies and pharmacokinetics” (priority 2020, published 2022):

Assay: clinical
Settings: human, in vivo
Excerpt: We claim that these volumes represent the physiological volumes of extracellular fluid compartments that receive the drug with different kinetic rates. Total exclusion of the drug from intracellular fluids is most plausible considering the highly polar and hydrophilic nature of sisomicin. Alternatively, the peripheral compartment could be considered to be interstitial fluid as a different phase of slightly higher drug affinity, where steric hindrance and binding to the negatively charged components of the extracellular matrix retards drug movement. […] The explicit solutions to the two-compartment model as a function of real time provide estimates of drug concentration upon repeated dosing (U.S. patent application Ser. No. 16/992,658). These drug concentrations at momentary distribution equilibrium (teq) can be used to determine the drug's apparent volume of distribution.
Eq. 21, can be used to assess a substance apparent volume of distribution associated with the phase of the central compartment, but only if the central compartment is a single phase. Using eq. 21, Vd,1 was calculated to be equal to 11.78 L. The equilibrium time of intercompartmental drug distribution teq is calculated from eq.
Eur J Clin Pharmacol. 1976; 10: 251-256. […]

A Vd of 11.8 L was found for CN[C@@H]1[C@@H](O)[C@@H](O[C@@H]2[C@@H](O)[C@H](O[C@H]3OC(CN)=CC[C@H]3N)[C@@H](N)C[C@H]2N)OC[C@]1(C)O [sisomicin] in this work.
